Assay results taken from ChEMBL document CHEMBL1201862, “PubChem BioAssay data set” (2004).
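All cell lines were grown in 96-well plates and treated with compound for 48 hours. GI50: concentration for 50% inhibition of growth.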 Calls of active or inactive are those of the source. Rule as the data show it: active = GI50 up to about 1.1 µM and inactive = higher.

Legend:
Test in all cases: inhibition of tumour cell growth, NCI panel, 48 h
[1] = system: HOP-62
[2] = system: CCRF-CEM
[3] = system: UACC-257
[4] = system: SF-295
[5] = system: MOLT-4
[6] = system: HCC 2998
[7] = system: TK-10
[8] = system: HCT-15
[9] = system: COLO 205
[10] = system: MDA-N
[11] = system: OVCAR-3
[12] = system: SK-MEL-5
[13] = system: K562
[14] = system: MCF7
[15] = system: SN12C
[16] = system: NCI-H522
[17] = system: NCI/ADR-RES
[18] = system: Malme-3M
[19] = system: A498

## O=C1CCCC2(c3ccccc3)Nc3ccccc3N12 (stereo unspecified)
[1]
  GI50: > 100 µM (inactive)
[2]
  GI50: > 100 µM (inactive)
[3]
  GI50: > 100 µM (inactive)
[4]
  GI50: 97.1 µM (inactive)
[5]
  GI50: > 100 µM (inactive)
[6]
  GI50: > 100 µM (inactive)
[7]
  GI50: > 100 µM (inactive)
[8]
  GI50: > 100 µM
[9]
  GI50: > 100 µM (inactive)
[10]
  GI50: > 100 µM (inactive)
[11]
  GI50: > 100 µM (inactive)
[12]
  GI50: > 100 µM (inactive)
[13]
  GI50: 82.6 µM (inactive)
[14]
  GI50: > 100 µM (inactive)
[15]
  GI50: > 100 µM (inactive)
[16]
  GI50: > 100 µM (inactive)
[17]
  GI50: > 100 µM (inactive)
[18]
  GI50: > 100 µM (inactive)

## CC1=Nc2c(C#N)ncn2N=C(C)C1
[1]
  GI50: > 100 µM (inactive)
[2]
  GI50: 70.5 µM (inactive)
[3]
  GI50: > 100 µM (inactive)
[4]
  GI50: > 100 µM (inactive)
[19]
  GI50: > 100 µM (inactive)
[5]
  GI50: > 100 µM (inactive)
[7]
  GI50: > 100 µM (inactive)
[9]
  GI50: > 100 µM (inactive)
[10]
  GI50: > 100 µM (inactive)
[11]
  GI50: > 100 µM (inactive)
[12]
  GI50: > 100 µM (inactive)
[13]
  GI50: > 100 µM (inactive)
[14]
  GI50: > 100 µM (inactive)
[15]
  GI50: > 100 µM (inactive)
[17]
  GI50: > 100 µM (inactive)

## O=S(=O)(/N=S(/Nc1ccccc1)C(F)(F)Cl)c1ccccc1 (stereo unspecified)
[1]
  GI50: > 100 µM (inactive)
[2]
  GI50: > 100 µM (inactive)
[3]
  GI50: > 100 µM (inactive)
[4]
  GI50: > 100 µM (inactive)
[19]
  GI50: > 100 µM (inactive)
[5]
  GI50: > 100 µM (inactive)
[7]
  GI50: > 100 µM (inactive)
[8]
  GI50: > 100 µM
[9]
  GI50: > 100 µM (inactive)
[10]
  GI50: > 100 µM (inactive)
[11]
  GI50: > 100 µM (inactive)
[12]
  GI50: > 100 µM (inactive)
[13]
  GI50: > 100 µM (inactive)
[14]
  GI50: > 100 µM (inactive)
[15]
  GI50: > 100 µM (inactive)
[17]
  GI50: > 100 µM (inactive)
[18]
  GI50: > 100 µM (inactive)

## CC(C)CCCC(C)[C@H]1CC[C@H]2n3c(nnc3-c3ccccc3)CCC[C@]12C (stereo partly specified)
[1]
  GI50: 16 µM (inactive)
[2]
  GI50: 3.49 µM (inactive)
[3]
  GI50: 13.3 µM (inactive)
[4]
  GI50: 9.08 µM (inactive)
[19]
  GI50: 14 µM (inactive)
[5]
  GI50: 3.96 µM (inactive)
[6]
  GI50: < 0.01 µM (active)
[7]
  GI50: 21.5 µM (inactive)
[8]
  GI50: 13.8 µM
[9]
  GI50: 3.21 µM (inactive)
[10]
  GI50: 13.6 µM (inactive)
[11]
  GI50: 10.5 µM (inactive)
[12]
  GI50: 10.7 µM (inactive)
[13]
  GI50: 3.8 µM (inactive)
[14]
  GI50: 5.97 µM (inactive)
[15]
  GI50: 8.91 µM (inactive)
[17]
  GI50: 9.93 µM (inactive)
[18]
  GI50: 23.2 µM (inactive)

## CC1=C(C)C(=O)OC(C(C)(O)C2(O)CC3OC34C3CC(O)C56OC5C=CC(=O)C6(C)C3CCC42C)C1 (stereo unspecified)
[1]
  GI50: 11 µM (inactive)
[2]
  GI50: 0.851 µM (active)
[3]
  GI50: 1.6 µM (inactive)
[4]
  GI50: 3.48 µM (inactive)
[19]
  GI50: 2.73 µM (inactive)
[5]
  GI50: 0.586 µM (active)
[6]
  GI50: 1.26 µM (inactive)
[7]
  GI50: 1.5 µM (inactive)
[8]
  GI50: 0.791 µM
[9]
  GI50: 1.5 µM (inactive)
[10]
  GI50: 1.61 µM (inactive)
[11]
  GI50: 1.19 µM (inactive)
[12]
  GI50: 1.67 µM (inactive)
[13]
  GI50: 0.927 µM (active)
[14]
  GI50: 1.21 µM (inactive)
[15]
  GI50: 2.82 µM (inactive)
[16]
  GI50: 0.361 µM (active)
[18]
  GI50: 0.762 µM (active)

## Cc1nn2c(=O)c([N+](=O)[O-])c(/C=C/c3ccco3)nc2s1
[1]
  GI50: > 100 µM (inactive)
[2]
  GI50: 31.7 µM (inactive)
[3]
  GI50: 87.5 µM (inactive)
[4]
  GI50: 91 µM (inactive)
[5]
  GI50: 31.7 µM (inactive)
[6]
  GI50: > 100 µM (inactive)
[7]
  GI50: > 100 µM (inactive)
[8]
  GI50: 41.5 µM
[9]
  GI50: 61.4 µM (inactive)
[10]
  GI50: 26.9 µM (inactive)
[11]
  GI50: 38.8 µM (inactive)
[12]
  GI50: 25.9 µM (inactive)
[13]
  GI50: 36.6 µM (inactive)
[14]
  GI50: 38.5 µM (inactive)
[15]
  GI50: 64.9 µM (inactive)
[16]
  GI50: 60.5 µM (inactive)
[17]
  GI50: 46.9 µM (inactive)
[18]
  GI50: 68.9 µM (inactive)

## CN1CNc2nc(N)n(C)c(=O)c2C1
[2]
  GI50: > 10 µM (inactive)
[3]
  GI50: > 10 µM (inactive)
[4]
  GI50: > 10 µM (inactive)
[5]
  GI50: > 10 µM (inactive)
[6]
  GI50: > 10 µM (inactive)
[7]
  GI50: > 10 µM (inactive)
[8]
  GI50: > 10 µM
[10]
  GI50: > 10 µM (inactive)
[11]
  GI50: > 10 µM (inactive)
[13]
  GI50: > 10 µM (inactive)
[15]
  GI50: > 10 µM (inactive)
[16]
  GI50: > 10 µM (inactive)
[17]
  GI50: > 10 µM (inactive)
[18]
  GI50: > 10 µM (inactive)

## COC1CC(OC2C(C)OC(OC3C(C)OC(OC4C(C)OC(O[C@H]5CC[C@@]6(C)C(=CC[C@]7(O)[C@@H]6C[C@@H](OC(C)=O)[C@@]6(C)[C@]7(O)CC[C@@]6(O)C(C)=O)C5)CC4OC)CC3OC)CC2OC)OC(C)C1O (stereo partly specified)
[1]
  GI50: > 25 µM (inactive)
[2]
  GI50: > 25 µM (inactive)
[3]
  GI50: > 25 µM (inactive)
[4]
  GI50: > 25 µM (inactive)
[5]
  GI50: > 25 µM (inactive)
[6]
  GI50: > 25 µM (inactive)
[7]
  GI50: > 25 µM (inactive)
[8]
  GI50: > 25 µM
[9]
  GI50: > 25 µM (inactive)
[10]
  GI50: > 25 µM (inactive)
[11]
  GI50: > 25 µM (inactive)
[12]
  GI50: > 25 µM (inactive)
[13]
  GI50: > 25 µM (inactive)
[14]
  GI50: > 25 µM (inactive)
[15]
  GI50: > 25 µM (inactive)
[16]
  GI50: > 25 µM (inactive)
[17]
  GI50: > 25 µM (inactive)
[18]
  GI50: > 25 µM (inactive)
